# What was measured:
# [1] = system: HT1080 cells (a fibrosarcoma cell line); experiment: Cancer cell proliferation, oligonucleotide in LIPOFECTAMINE, 48 hours, direct cell counting; format: cell-based, human; conditions: P<0.05
# Experimental: FIG. 1 is a graph showing the effect of sense and antisense ERV-9 U3 oligonucleotides (SEQ ID NOs: 1 and 2, respectively) on proliferation of HT1080 cells (a fibrosarcoma cell line). Cells (4×10^4) were treated with ERV-9 U3 sense or antisense oligonucleotide formulated in LIPOFECTAMINE™ at the concentrations shown for 48 hours. Green fluorescent protein (GFP) sense oligonucleotide (SEQ ID NO: 3) was used as a control to measure the non-specific cytotoxicity of phosphorothioate-based oligonucleotides. Antisense oligonucleotides specific for Bcl-2 (G3139; SEQ ID NO: 4), telomerase (GRN163; SEQ ID NO: 5) and MDM2 (SEQ ID NO: 6) were also evaluated. Cell proliferation levels were expressed relative to cells transfected with 10 μg/ml GFP oligonucleotide.
# (§1) To test the effect of the sense and antisense ERV-9 U3 oligonucleotides on proliferation of cancer cells, six different cancer cell lines were selected for transfection studies: HT1080, fibrosarcoma cells (FIG. 1); MDA-231, breast cancer cells (FIG. 2); K562, myelogenous leukemia cells (FIG. 3); LNcaP, prostate cancer cells (FIG. 4); HepG2, hepatocellular carcinoma cells (FIG. 5); and MCF-7, breast cancer cells (FIG. 6). Cells (4×10^4) were treated with ERV-9 U3 sense or antisense oligonucleotide formulated in LIPOFECTAMINE™ at an oligonucleotide concentration of 10, 20 or 30 μg/ml for 48 hours. Green fluorescent protein (GFP) sense oligonucleotide ([…]; SEQ ID NO: 3) was used as a control to measure the non-specific cytotoxicity of phosphorothioate-based oligonucleotides. Antisense oligonucleotides specific for Bcl-2 (G3139; TCTCCCAGCGTGCGCCAT; SEQ ID NO: 4), telomerase (GRN163; TAGGGTTAGACAA; SEQ ID NO: 5), and MDM2 ([…]; SEQ ID NO: 6) were also evaluated. […] After 48 hours of oligonucleotide treatment, cell proliferation was assessed by direct cell counting. Cell proliferation levels were expressed relative to cells transfected with 10 μg/ml GFP control oligonucleotide.
# [2] = system: HepG2 cells (a hepatocellular carcinoma cell line); experiment: as above; format: cell-based, human; conditions: oligonucleotide 10, 20 or 30 μg/ml, P<0.05
# Experimental: FIG. 5 is a graph showing the effect of sense and antisense ERV-9 U3 oligonucleotides (SEQ ID NOs: 1 and 2, respectively) on proliferation of HepG2 cells (a hepatocellular carcinoma cell line). Cells (4×10^4) were treated with ERV-9 U3 sense or antisense oligonucleotide formulated in LIPOFECTAMINE™ at the concentrations shown for 48 hours.
# To test the effect of the sense and antisense ERV-9 U3 oligonucleotides on proliferation of cancer cells, six different cancer cell lines were selected for transfection studies: HT1080, fibrosarcoma cells (FIG. 1); MDA-231, breast cancer cells (FIG. 2); K562, myelogenous leukemia cells (FIG. 3); LNcaP, prostate cancer cells (FIG. 4); HepG2, hepatocellular carcinoma cells (FIG. 5); and MCF-7, breast cancer cells (FIG. 6). Cells (4×10^4) were treated with ERV-9 U3 sense or antisense oligonucleotide formulated in LIPOFECTAMINE™ at an oligonucleotide concentration of 10, 20 or 30 μg/ml for 48 hours. […] Antisense oligonucleotides specific for Bcl-2 (G3139; TCTCCCAGCGTGCGCCAT; SEQ ID NO: 4), telomerase (GRN163; TAGGGTTAGACAA; SEQ ID NO: 5), and MDM2 ([…]; SEQ ID NO: 6) were also evaluated. […] After 48 hours of oligonucleotide treatment, cell proliferation was assessed by direct cell counting. […]
# [3] = system: HT1080, MDA-231, K562, LNcaP, HepG2 and MCF-7 cancer cell lines; experiment: Cancer cell proliferation, Example 1, summary over six cancer cell lines; format: cell-based, human; conditions: for proliferation relative to GFP control oligonucleotide: each of six cancer cell lines, 10, 20 or 30 μg/ml, 48 hours; for proliferation compared with Bcl-2, telomerase and MDM2-specific antisense oligonucleotides: six cancer cell lines, in most instances
# Experimental: as §1
# [4] = system: HT1080 cells; experiment: Cancer cell proliferation, oligonucleotide in combination with VP16, 48 hours; format: cell-based, human; conditions: oligonucleotide 15 μg/ml with VP16 30 ng/ml and 50 ng/ml, P<0.05
# Experimental: FIG. 7 is a graph showing proliferation of HT1080 cells treated with ERV-9 U3 sense or antisense oligonucleotide (SEQ ID NOs: 1 and 2, respectively), in combination with VP16 (also known as etoposide). Cells (4×10^4) were treated with oligonucleotide (15 μg/ml) alone or in combination with the concentrations of VP16 shown for 48 hours. Cell proliferation levels were expressed relative to the percentage of GFP oligonucleotide control in the absence of VP16.
# (§2) To test the effect of treating cancer cells with the combination of ERV-9 U3 oligonucleotide and VP16, six different cancer cell lines were analyzed: HT1080, (FIG. 7); MDA-231 (FIG. 8); K562 (FIG. 9); LNcaP (FIG. 10); HepG2 (FIG. 11); and MCF-7 (FIG. 12). Cells (4×10^4) were treated with 15 μg/ml ERV-9 U3 sense (SEQ ID NO: 1) or antisense (SEQ ID NO: 2) oligonucleotide alone or in combination with VP16 at a concentration of 30 ng/ml or 50 ng/ml. After 48 hours, cell proliferation was assessed by direct cell counting. Cell proliferation levels were expressed relative to GFP oligonucleotide control in the absence of VP16.
# [5] = system: HT1080, MDA-231, K562, LNcaP, HepG2 and MCF-7 cancer cell lines; experiment: Cancer cell proliferation, Example 2, summary over six cancer cell lines, alone or with VP16; format: cell-based, human; conditions: for proliferation relative to GFP control oligonucleotide: each of six cancer cell lines, oligonucleotide 15 μg/ml, 48 hours; for proliferation compared with Bcl-2, telomerase and MDM2-specific antisense oligonucleotides: six cancer cell lines, alone or with VP16, in most instances
# Experimental: as §2
# [6] = system: human primary keratinocytes; experiment: Proliferation of normal human primary cells, 48 hours; format: cell-based; conditions: 20 μg/ml, P>0.05
# Experimental: (§3) FIG. 13 is a graph showing the effect of ERV-9 U3 sense and antisense oligonucleotides (SEQ ID NOs: 1 and 2, respectively) on human primary keratinocytes. Cells (4×10^4) were transfected with ERV-9 U3 sense or antisense oligonucleotide formulated in LIPOFECTAMINE™ at a concentration of 20 μg/ml for 48 hours. GFP oligonucleotide was used as non-specific phosphorothioate oligonucleotide control.
# (§4) To determine whether the inhibitory effect of ERV-9 U3 oligonucleotides is specific to cancer cells, human primary keratinocytes (FIG. 13), lymphocytes (FIG. 14), or monocytes (FIG. 15) were treated with ERV-9 U3 sense or antisense oligonucleotide and cell proliferation was evaluated. Cells (4×10^4) were transfected with ERV-9 U3 sense or antisense oligonucleotide (SEQ ID NOs: 1 and 2, respectively) formulated in LIPOFECTAMINE™ at a concentration of 20 μg/ml. GFP oligonucleotide was used as non-specific phosphorothioate oligonucleotide control. After 48 hours, cell proliferation was assessed by direct cell counting. Cell proliferation levels were expressed relative to GFP control.
# [7] = system: human primary lymphocytes; experiment: as above; format: cell-based; conditions: 20 μg/ml, P>0.05
# Experimental: as §3, with “14” for “13”, “lymphocytes.” for “keratinocytes.”, “hours.” for “hours. GFP oligonucleotide was used as non-specific phosphorothioate oligonucleotide control.”
# as §4
# [8] = system: human primary monocytes; experiment: as above; format: cell-based; conditions: 20 μg/ml, P>0.05
# Experimental: as §3, with “15” for “13”, “monocytes.” for “keratinocytes.”, “hours.” for “hours. GFP oligonucleotide was used as non-specific phosphorothioate oligonucleotide control.”
# as §4
# [9] = oligonucleotide 20 μg/ml and 30 μg/ml
substance,measurement,setting,value
"U3AS: ERV-9 LTR U3 antisense oligonucleotide CTGATTGGTGTGTTTACAAACCTTGAG, phosphorothioate internucleoside linkages at each position (all phosphorothioate, sugars by position and methylation of C not given here) [Oligo U3AS]",cell proliferation relative to GFP oligonucleotide,[1]; oligonucleotide 10 μg/ml,inhibited cell proliferation better than GFP oligonucleotide
same,cell proliferation relative to GFP oligonucleotide,[1]; [9],"inhibited cell proliferation better than GFP control and G3139, GRN163 and MDM2 antisense oligonucleotides"
same,cell proliferation relative to GFP oligonucleotide,[2],"inhibited cell proliferation better than GFP control and G3139, GRN163 and MDM2 antisense oligonucleotides at all three concentration levels"
same,proliferation relative to GFP control oligonucleotide,[3],"resulted in a significant decrease in proliferation of each cancer cell line tested, relative to GFP control oligonucleotide"
same,"proliferation compared with Bcl-2, telomerase and MDM2-specific antisense oligonucleotides",[3],"inhibited proliferation to a greater extent than the Bcl-2, telomerase and MDM2-specific antisense oligonucleotides"
same,"tumor cell proliferation, antisense relative to sense oligonucleotide",[3]; tumor cells,more potently inhibited tumor cell proliferation (relative to the sense oligonucleotide)
same,cell proliferation relative to GFP oligonucleotide control,[4],"inhibited cell proliferation better than GFP control and G3139, GRN163 and MDM2 antisense oligonucleotides"
same,proliferation relative to GFP control oligonucleotide,[5],"resulted in a significant decrease in proliferation of each cancer cell line tested, relative to GFP control oligonucleotide"
same,"proliferation compared with Bcl-2, telomerase and MDM2-specific antisense oligonucleotides",[5],"inhibited proliferation to a greater extent than the Bcl-2, telomerase and MDM2-specific antisense oligonucleotides, either alone or in combination with VP16"
same,cell proliferation relative to control GFP oligonucleotide,[6],did not inhibit cell proliferation relative to control GFP oligonucleotide
same,cell proliferation relative to control GFP oligonucleotide,[7],did not inhibit cell proliferation relative to control GFP oligonucleotide
same,cell proliferation relative to control GFP oligonucleotide,[8],did not inhibit cell proliferation relative to control GFP oligonucleotide
"U3S: ERV-9 LTR U3 sense oligonucleotide CTCAAGGTTTGTAAACACACCAATCAG, phosphorothioate internucleoside linkages at each position (all phosphorothioate, sugars by position and methylation of C not given here) [Oligo U3S]",cell proliferation relative to GFP oligonucleotide,[1]; oligonucleotide 10 μg/ml,inhibited cell proliferation better than GFP oligonucleotide
same,cell proliferation relative to GFP oligonucleotide,[1]; [9],"inhibited cell proliferation better than GFP control and G3139, GRN163 and MDM2 antisense oligonucleotides"
same,cell proliferation relative to GFP oligonucleotide,[2],"inhibited cell proliferation better than GFP control and G3139, GRN163 and MDM2 antisense oligonucleotides at all three concentration levels"
same,proliferation relative to GFP control oligonucleotide,[3],"resulted in a significant decrease in proliferation of each cancer cell line tested, relative to GFP control oligonucleotide"
same,"proliferation compared with Bcl-2, telomerase and MDM2-specific antisense oligonucleotides",[3],"inhibited proliferation to a greater extent than the Bcl-2, telomerase and MDM2-specific antisense oligonucleotides"
same,cell proliferation relative to GFP oligonucleotide control,[4],"inhibited cell proliferation better than GFP control and G3139, GRN163 and MDM2 antisense oligonucleotides"
same,proliferation relative to GFP control oligonucleotide,[5],"resulted in a significant decrease in proliferation of each cancer cell line tested, relative to GFP control oligonucleotide"
same,"proliferation compared with Bcl-2, telomerase and MDM2-specific antisense oligonucleotides",[5],"inhibited proliferation to a greater extent than the Bcl-2, telomerase and MDM2-specific antisense oligonucleotides, either alone or in combination with VP16"
same,cell proliferation relative to control GFP oligonucleotide,[6],did not inhibit cell proliferation relative to control GFP oligonucleotide
same,cell proliferation relative to control GFP oligonucleotide,[7],did not inhibit cell proliferation relative to control GFP oligonucleotide
same,cell proliferation relative to control GFP oligonucleotide,[8],did not inhibit cell proliferation relative to control GFP oligonucleotide

# Source: patent US8680065B2, “Oligonucleotides of human endogenous retrovirus 9 (ERV-9) long terminal repeat (LTR) and methods of use” (The United States of America, as represented by the …, priority 2008, dated 2014)
